Patent US10179914B2, “CDC25A inhibitor for the treatment of drug resistant cancer or for the prevention of tumor relapse” (INSERM (INSTITUT NATIONAL DE LA SANTÉ ET DE LA RECHERCHE …, priority 2014, dated 2019)

Experiments:
[1] = test system: C/EBPα Ser21 phosphorylation, c-myc, C/EBPε; test: Western blot of differentiation markers in MOLM-14; format: cell-based, human; details: MOLM-14, 100 nM
Protocol: (§1) (a-b) MOLM-14 and MV4-11 cells were treated for different times with IRC-083864 (100 nM and 200 nM) and the expression of the cell surface markers CD11b, CD14 and CD15 were followed by flow cytometry analysis. (c) MOLM-14 and MV4-11 cells were treated for different times with IRC-083864 (100 nM) and morphological changes were estimated by microscopy after cells were cytospun and stained at days 8 and 13. Original magnification ×100. (d) MOLM-14 cells were treated for different times with IRC-083864 (100 nM) and c-myc expression as well as C/EBPα phosphorylation on serine 21 were analyzed by western blot at day 1, and C/EBPε expression after 6 days of treatment. (e) MOLM-14 cells were transfected with CDC25A shRNA The expression of the cell surface markers CD11b, CD14 and CD15 were followed by flow cytometry analysis at day 3 and 6 (upper panel), and their morphology was analyzed by microscopy after 6 days (lower panel). Original magnification ×100. (f) MOLM-14 cells were transfected with CDC25A siRNA, and their morphology was analyzed by microscopy after 3 days (upper panel). Original magnification ×100. The efficiency of CDC25A siRNA was assessed by western blot analysis (lower panel).
Western blot. 2×10^6 cells were usually lysed in 100 μL of NuPAGE® LDS Sample Buffer (Novex, Life Technologies, Carlsbad, Calif., USA), sonicated for 15 seconds, and boiled for 3 minutes. Proteins were then resolved on NuPAGE® 4-12% Bis-Tris Gels and transferred to nitrocellulose membrane. Saturation of the membrane was done for 1 hour in Tris Buffer Saline with Tween 0.1% (TBS-T) containing 5% non-fat milk or 5% bovine serum albumin. Membranes were blotted with proper antibodies overnight at 4° C., washed thrice with TBS-T, and incubated for 30 minutes with HRP-conjugated secondary antibody (Promega, Madison, Wis., USA). […]

[2] = Preliminary toxicity assays in NSG mice; format: in vivo
Description: In vivo experiments. Animals were used in accordance to a protocol reviewed and approved by the Institutional Animal Care and User Ethical Committee of the UMS006 and Region Midi-Pyrénées (Approval#13-U1037-JES08). NOD/LtSz-scid IL-2Rγchainnull (NSG) mice (Sanchez P V et al) were produced at the Genotoul Anexplo platform in Toulouse (France) using breeders obtained from The Charles River Laboratory. Mice were housed in sterile conditions using HEPA filtered micro-isolators and fed with irradiated food and acidified water. Transplanted mice were treated with antibiotics (enrofloxacin) for the duration of the experiment. […] Adult mice (6 or 7-week old) were treated with 20 mg/kg Busulfan (Busilvex, Pierre Fabre, France) by i.p. administration 24 hours before injection of leukemic cells. Cultured MOLM-14 cells were washed in PBS and cleared of aggregates and debris using a 0.2 mm cell filter, and suspended in PBS at a final concentration of 2 million cells per 200 μL of PBS per mouse for i.v. injection. IRC-083864 (5 mg/kg/week) was then administrated to leukemic mice by i.p. injection. Daily monitoring of mice for symptoms of disease (ruffled coat, hunched back, weakness and reduced motility) determined the time of animal euthanasia. Cell differentiation was monitored after two IRC-083864 injections: mice were humanely killed in accordance with IACUC protocols. […]

MOLM-14 and MV4-11 cells = test: Differentiation of FLT3-ITD AML cell lines (surface markers, morphology); format: cell-based, human
Protocol: as §1
Lentiviral infections. To generate lentiviral vectors expressing CDC25A protein, sequences were cloned into the pTrip-TAL-Ires-GFP lentiviral vector. We used 293-T packaging cells, co-transfected with lentiviral protein (GAG, POL, and ENV) encoding plasmids, and plasmids containing a control or CDC25A genes, separately. Supernatants containing lentivirus were collected 48 h after transfection, during 3 consecutive days. MOLM-14 cells were plated at 5×10^5 cells in 200 μl in serum-free medium and 5 μl of lentiviral supernatant was added during 3 h. Cells were then grown in 10% FBS RPMI medium.
Flow cytometry. Apoptotic cells were detected with Annexin V-FITC detection kit from BD Pharmingen (San Diego, Calif., USA) according to the manufacturer instructions. To evaluate AML cell differentiation, cells were stained for 30 min with the following anti-human monoclonal antibodies: CD11b-PE (Beckman Coulter), CD14-FITC (BD Biosciences), CD15-APC (BD Biosciences). For patient samples, additional hCD45-APC-H7 (BD Biosciences), Annexin V-Pacific Blue (BioLegend, San Diego, Calif., USA) and 7-AAD (Sigma) were used; and for bone marrow mice cells, additional CD33-FITC, CD44-PE Cy7, mCD45-PerCP Cy 5.5, CD14-Alexa 700 were used. Data were collected on a LSRII or a LSRFortessa cytometer (BD Biosciences), and analyzed with FlowJo software. A minimum of 10,000 events was collected.
Morphological examination. […] were spun at 500 rpm for 5 minutes onto glass slides and May-Grünwald-Giemsa stained at the Toulouse University Hospital hematology laboratory.

HCT-116 tumor spheroids = details: by induction of p21 and apoptosis; cited from earlier work

## Cc1nc2c(s1)C(=O)C=C(NCCCN(C)CCCNC1=CC(=O)c3nc(-c4cc(F)ccc4F)oc3C1=O)C2=O [IRC-083864]
[1]; day 1
  C/EBPα phosphorylation on serine 21: dephosphorylation
  c-myc expression: down-regulation
[1]; day 6
  C/EBPε expression: up-regulation
[2]
  toxicity in male versus female NSG mice: higher toxicity
MOLM-14 and MV4-11 cells; 100 nM and 200 nM, as early as two days
  expression of CD11b: induced in a dose dependent manner
MOLM-14 and MV4-11 cells; 100 nM, 8 and 13 days
  morphological analysis: monocytic-like nuclear changes
MOLM-14 and MV4-11 cells; after 8 days
  expression of CD15: either decreased or did not change significantly
MOLM-14 and MV4-11 cells; after 8 days, both cell lines
  expression of monocytic marker CD14: increased
HCT-116 tumor spheroids
  growth of HCT-116 tumor spheroids: inhibits the growth
